Results on six compounds are retold here after paper PMC6420870 (Neuropharmacology, 2019).

Holding throughout (type): cell-based
The target of experiment [1] is T1, rat mGlu5 (HEK293A-rat mGlu5-low) (Rattus norvegicus, UniProt P31424). The experiment can be described thus: [3H]methoxy-PEPy inhibition binding, intact adherent cells.
In experiment [2] the target is T1, rat mGlu5 (HEK293A-rat mGlu5-low). Kind of experiment: IP1 accumulation.
The target is the same in experiment [3]. Kind of experiment: radioligand binding, intact adherent cells. The following applies: labelled compound, ~2 nM, RT, 1 h, pH 7.4; allosteric site.

Structures are written as SMILES.

T1 sequence (P31424 21-1203): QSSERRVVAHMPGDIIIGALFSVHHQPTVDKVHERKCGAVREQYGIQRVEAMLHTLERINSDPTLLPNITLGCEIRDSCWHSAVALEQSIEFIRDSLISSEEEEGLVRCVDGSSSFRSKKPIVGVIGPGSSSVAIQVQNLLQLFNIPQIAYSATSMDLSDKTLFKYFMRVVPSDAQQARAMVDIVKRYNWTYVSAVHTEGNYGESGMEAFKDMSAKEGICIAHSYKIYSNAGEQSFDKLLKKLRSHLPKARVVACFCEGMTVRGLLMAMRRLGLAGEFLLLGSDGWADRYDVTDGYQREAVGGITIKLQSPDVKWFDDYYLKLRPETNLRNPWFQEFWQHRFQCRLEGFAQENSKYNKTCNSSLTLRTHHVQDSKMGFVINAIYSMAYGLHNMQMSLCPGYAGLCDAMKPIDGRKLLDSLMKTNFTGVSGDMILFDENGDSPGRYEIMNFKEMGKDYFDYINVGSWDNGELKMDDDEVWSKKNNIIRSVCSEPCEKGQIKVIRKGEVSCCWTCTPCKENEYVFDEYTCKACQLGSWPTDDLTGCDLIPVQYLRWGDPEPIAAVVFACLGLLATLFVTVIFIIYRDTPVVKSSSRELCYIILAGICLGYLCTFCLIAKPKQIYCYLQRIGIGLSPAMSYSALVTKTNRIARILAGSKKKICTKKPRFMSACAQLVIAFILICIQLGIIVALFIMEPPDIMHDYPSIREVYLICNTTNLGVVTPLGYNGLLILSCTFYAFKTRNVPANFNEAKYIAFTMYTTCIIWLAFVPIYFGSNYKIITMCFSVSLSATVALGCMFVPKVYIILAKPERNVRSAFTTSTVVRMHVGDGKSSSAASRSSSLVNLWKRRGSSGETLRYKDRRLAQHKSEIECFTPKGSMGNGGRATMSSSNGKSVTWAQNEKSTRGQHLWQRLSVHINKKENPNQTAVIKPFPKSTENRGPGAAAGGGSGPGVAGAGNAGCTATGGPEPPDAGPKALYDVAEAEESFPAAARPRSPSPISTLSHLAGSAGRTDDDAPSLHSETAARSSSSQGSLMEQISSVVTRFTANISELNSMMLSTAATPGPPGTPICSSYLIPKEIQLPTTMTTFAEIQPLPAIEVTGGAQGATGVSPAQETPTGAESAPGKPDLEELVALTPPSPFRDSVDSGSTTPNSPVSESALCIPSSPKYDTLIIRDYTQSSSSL

One may read the Ki as a dissociation constant, usually derived from enzyme kinetics or from competition with a known ligand. A lower Ki goes with a stronger hold on the target. One may read the IC50 as the midpoint of a concentration-inhibition curve. A lower IC50 goes with higher potency. As to `N#Cc1cnc(Nc2nc3ccccc3o2)nc1-c1ccc(F)cc1` [VU0366058, 2-(1,3-benzoxazol-2-ylamino)-4-(4-fluorophenyl)pyrimidine-5-carbonitrile], in experiment [1], the Ki was 55 nM. This compound also gave an IC50 in experiment [2] of 105 nM. In experiment [1], `N#Cc1cc(F)cc(C(=O)Nc2cccc(Cl)c2F)c1` [VU0366248, N-(3-chloro-2-fluorophenyl)-3-cyano-5-fluorobenzamide] had a Ki of 115 nM. The same compound gave an IC50 in experiment [2] of 331 nM. In the same order, the values of `Fc1ccc2nc(CCC#Cc3ccccn3)cn2c1` [dipraglurant, 6-fluoro-2-[4-(2-pyridinyl)-3-butyn-1-yl]-Imidazo[1,2-a]pyridine] are 49 nM and 43.7 nM.

`CN1CC(=O)N=C1NC(=O)Nc1cccc(Cl)c1` [fenobam, 1-(3-chlorophenyl)-3-[(2e)-1-methyl-4-oxoimidazolidin-2-ylidene]urea] yielded a Ki in experiment [1] of 70.8 nM. The compound also had an IC50 in experiment [2] of 148 nM. As to `COc1cncc(C#Cc2ccccn2)c1` [[^3H]methoxy-PEPy], the “radioligand binding, intact adherent cells” value in experiment [3] is “inhibition of [^3H]methoxy-PEPy binding was determined in HEK293A-rat mGlu5-low cells”. With `COc1cccc(C#Cc2ccc(C)cn2)c1` [M-5MPEP, 2-[2-(3-methoxyphenyl)ethynyl]-5-methylpyridine], in experiment [1], affinity was put at a Ki of 74.1 nM. In experiment [2], this compound showed an IC50 of 295 nM.
